Series [1] has as its target VA387 P dimers binding to type A and B saliva HBGAs (Norovirus GII.4 (Human calicivirus NLV/VA98387/1998), UniProt Q913Z3). Briefly: biochemical. Further details: species or system GII.4 NoV (VA387). Here is the method:
Saliva-based NoV-HBGA binding assays were performed as described previously using P dimers of VA387 (GII.4) as NoV surrogates and saliva samples and/or synthetic oligosaccharides as HBGA sources, [34], [35]. Briefly, synthetic oligosaccharides and/or boiled saliva samples with defined HBGAs phenotype were coated on 96-well microtiter plates, after blocking with nonfat milk, P dimer of VA387 were added. The bound P dimer was detected using a guinea pig antiserum against NoVs VLPs, followed by the addition of horseradish peroxidase (HRP)-conjugated goat anti-guinea pig IgG. The bound HRP conjugates were colorized by the TMB kit (Kirkegaard & Perry Laboratories), which was read an EIA spectrum reader (Tecan). The synthetic oligosaccharide-PAA conjugates (2 µg/ml, GlycoTech Corporation, Rockville, MD) were captured to a microtiter plate through coated streptavidin (5 µg/ml).
Blocking effects of the hit compounds were measured by a pre-incubation of the P dimers with the compounds at given concentrations for 30 min before the P dimers were added to the coated saliva samples or HBGA oligosaccharides in a binding assay. The blocking activity of a compound was defined as its concentration yielding 50% inhibition (IC50) in the binding assay. IC50 calculation was performed using Probit regression analysis and correlation analysis between IC50 and Ki values was performed with nonparametric Spearman’s r (two-tailed) by using SPSS statistical software version 13.0 (SPSS, Chicago, IL).

A short description of a further series: MTS cytotoxicity assay. It counts as cell-based, human (HeLa); rhesus monkey (LLC-MK2). The procedure: This assay was performed using CellTiter 96 aqueous nonradioactive cell proliferation kits (Promega, Madison, WI) as described elsewhere. Briefly, HeLa and LLC-MK2 cells were seeded at 5×10^4 cells/ml onto a 96-well plate overnight. After an incubation with each compound at various concentrations for 3 days (the compound was added one time at the beginning of the incubation), the culture medium was replaced with fresh one with 100 µl of MTS-phenazine methosulfate/well. After a further incubation at 37°C for 2 h, the color products of MTS were measured with a plate reader at 490 nm. The cytotoxicities of individual compounds were indicated by the decrease in cellular reduction of MTS into the colored product. The 50% cytotoxic concentrations (CC50 s) were determined as the concentrations of the compounds that caused 50% inhibition of cell growth compared with that of control cells without a compound.

Setting [2] is: IC50 Saliva A, blocking assay, type A saliva, mean ± standard deviation.
The mark [3] stands for this setting: IC50 Saliva B, blocking assay, type B saliva, mean ± standard deviation.
Where [4] appears, read: Activity (IC50), against binding of VA387 to the A and B saliva.
Setting [5] is: 3 days incubation, HeLa and LLC-MK2 cells, cell line not given, read-out: CC50.

Read-outs that look alike come from different tables or passages of the source.

Sequence of VA387 P dimers binding to type A and B saliva HBGAs (Q913Z3 entry or part of it): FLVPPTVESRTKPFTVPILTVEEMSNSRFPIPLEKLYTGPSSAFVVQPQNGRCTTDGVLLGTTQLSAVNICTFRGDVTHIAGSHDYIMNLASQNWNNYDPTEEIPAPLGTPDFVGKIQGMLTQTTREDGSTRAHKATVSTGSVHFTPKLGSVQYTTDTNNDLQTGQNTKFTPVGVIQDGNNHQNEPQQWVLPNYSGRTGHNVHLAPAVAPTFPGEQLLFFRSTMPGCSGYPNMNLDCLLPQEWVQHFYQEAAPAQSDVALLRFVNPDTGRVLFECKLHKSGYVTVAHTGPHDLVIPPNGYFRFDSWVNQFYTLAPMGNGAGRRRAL

A word on the IC50: it is the concentration at which inhibition is half-maximal. On to `Cc1ccc(C2CC(=O)Nc3c2ccc2ccccc32)cc1[N+](=O)[O-]` (centres unmarked) [ZINC00181174], for which the figures for the IC50 in series [1] (setting [2]) and in series [1] (setting [3]) were 33.5 ± 0.68 µM and 33.7 ± 1.27 µM, respectively.
The compound `CC12CCC(O)C=C1CCC1C2CCC2(C)C1CCC21CCC(=O)O1` (centres unmarked) [ZINC04081424] registered an IC50 in series [1] (setting [4]) of 20 to 40 µM.
In turn, `CC12CCC(=NOCC(=O)NCC(=O)O)C=C1CCC1C2CCC2(C)C(O)CCC12` (centres unmarked) [ZINC04084183] had a half-maximal inhibitory concentration (IC50) in series [1] (setting [4]) of 10 to 20 µM.
Turning to `O=C1CC(c2ccc([N+](=O)[O-])cc2)c2ccc3ccccc3c2N1` (centres unmarked) [ZINC00124088], the figures for the IC50 in series [1] (setting [2]) and in series [1] (setting [3]) were 24.5 ± 0.98 µM and 26.3 ± 1.24 µM, respectively.
The corresponding values for `O=[N+]([O-])c1ccc2c(c1)C1C=CCC1C(C1CC=CCC1)N2` (centres unmarked) [ZINC04725822] are 13.2 ± 1.04 µM and 13.1 ± 0.87 µM.
Usually CC50 stands for the concentration at which the toxic effect on the cells reaches its halfway point. With `CC(CCC(=O)O)C1CCC2C3CC=C4CC(O)CCC4(C)C3CCC12C` (centres unmarked) [ZINC04831336], the CC50 at 3 days in “MTS cytotoxicity assay” (setting [5]) worked out at 225 µM. The values for the IC50 in series [1] (setting [4]), in series [1] (setting [2]) and in series [1] (setting [3]) were 1 to 10 µM, 7.63 ± 0.27 µM and 7.65 ± 0.33 µM, respectively.
Regarding `O=C(O)c1ccc(C2Nc3c(F)cccc3C3C=CCC32)cc1` (centres unmarked) [ZINC04298453], the results for the IC50 in series [1] (setting [2]) and in series [1] (setting [3]) were 38 ± 2.01 µM and 39.4 ± 1.53 µM, respectively.
Turning to `CC(=O)C1=CCC2C3CC=C4CC(O)CCC4(C)C3CCC12C` (centres unmarked) [ZINC00968234], the half-inhibitory concentration (IC50) in series [1] (setting [4]) was in the range of 20 to 40 µM.
On to `CC1(C)CC(=O)C2=C(C1)c1c(ccc3ccccc13)NC2` [ZINC00128665], for which the IC50 in series [1] (setting [2]) was found to be 14.1 ± 0.53 µM; in series [1] (setting [3]) it was 14.9 ± 0.71 µM.
Turning to `CC1CCc2c(sc3ncn(C(C)C(=O)N/N=C/c4c(O)ccc5ccccc45)c(=O)c23)C1` (centres unmarked) [ZINC06166484], the half-maximal inhibitory concentration (IC50) in series [1] (read-out: IC50 Saliva A, blocking assay, type A saliva, mean ± standard deviation) is 17 ± 1.06 µM; in series [1] (read-out: IC50 Saliva B, blocking assay, type B saliva, mean ± standard deviation), 16.8 ± 0.87 µM.
`COc1cc([N+](=O)[O-])cc2c1NC(c1ccccn1)C1CC=CC21` (centres unmarked) [ZINC04450155]: the IC50 in series [1] (setting [4]) was 20 to 40 µM; in series [1] (setting [2]) it was 24.2 ± 0.74 µM; in series [1] (setting [3]) it was 24.3 ± 0.87 µM.
With `C[C@]12CC[C@H](O)C[C@@H]1CC[C@@H]1[C@@H]2CC[C@@]2(C)[C@H]1CC[C@]2(C)O` [ZINC05223451], the CC50 at 3 days in the series “MTS cytotoxicity assay” (setting [5]) was determined as 171 µM. For the same compound, the IC50 in series [1] (setting [4]) is 1 to 10 µM; in series [1] (setting [2]) it was 3.37 ± 0.13 µM; in series [1] (setting [3]) it was 3.39 ± 0.24 µM.
In the case of `CC12CCC3C(CCC4CC(=O)CCC43C)C1CCC2O` (centres unmarked) [ZINC03814360], the IC50 in series [1] (setting [2]) is 36.9 ± 1.47 µM; in series [1] (setting [3]), 35.7 ± 1.06 µM.
With `C/C(=N/O)C1=CCC2C3CC[C@H]4C/C(=N\O)CC[C@]4(C)C3CC[C@]12C` (some centres unmarked) [ZINC04041115], the CC50 at 3 days in the series “MTS cytotoxicity assay” was determined as 203 µM. Moreover, the IC50 is 1 to 10 µM in series [1] (setting [4]), 2.38 ± 0.15 µM in series [1] (setting [2]) and 2.54 ± 0.21 µM in series [1] (setting [3]).
For the compound `C[C@]12CCC3C(CC[C@H]4CC=CC[C@]34C)C1CC/C2=N/NC(N)=S` (some centres unmarked) [ZINC04026813], it took 212 µM to reach half-maximal cytotoxicity in the series “MTS cytotoxicity assay” (CC50 at 3 days). Also, the IC50 in series [1] (setting [4]) was 1 to 10 µM; in series [1] (setting [2]), 8.7 ± 1.03 µM; in series [1] (setting [3]) it was 8.97 ± 0.63 µM.
`CC(=O)C1CCC2C3CCC4CC(O)CCC4(C)C3CCC12C` (centres unmarked) [ZINC05260830]: in the series “MTS cytotoxicity assay” (setting [5]), the CC50 at 3 days was determined as 267 µM. The compound further displayed an IC50 in series [1] (setting [4]) of 1 to 10 µM.
For `Nc1ccc2c(c1)C1C=CCC1C(c1ccc([N+](=O)[O-])cc1)N2` (centres unmarked) [ZINC04095376], the IC50 in series [1] (setting [2]) was 12.6 ± 0.87 µM; in series [1] (setting [3]), 12.8 ± 0.64 µM.
Regarding `CC(=O)OCC(=O)C1CCC2C3CC=C4CC(O)CCC4(C)C3CCC12C` (centres unmarked) [ZINC00652738], the IC50 in series [1] (setting [2]) amounted to 30.9 ± 1.04 µM; in series [1] (setting [3]), 30.1 ± 1.35 µM.
For `Cc1noc2c1C1(C)CCC3C(CC=C4CC(O)CCC43C)C1C2` (centres unmarked) [ZINC04014899] the same measures were 33.9 ± 1.67 µM and 34.5 ± 1.93 µM.
